Data set [1] deals with HT29 tumor-bearing mice. The experiment in a line: Effect of Ca-DTPA on in vivo pharmacokinetics of ^64Cu-ATSM in HT29 tumor-bearing mouse (Comparative Example 1). As to conditions: Ca-DTPA 150 mg/kg i.v. 10 minutes after ^64Cu-ATSM; 1 and 2 hours; vs saline.
The nature of data set [2]: ^64Cu complex exchange reaction between ^64Cu-ATSM and chelating agent in mouse plasma (TLC). As to conditions: 37° C., chelating agent 10 mg/mL, ^64Cu-ATSM 6 μCi/mL, 5, 30 or 60 minutes. The procedure:
Blood collected from BALB/c nude mice (male, 6-week old, about 25 g in body weight, obtained from Japan SLC, Inc.) under diethyl ether anesthesia was centrifuged (high-speed cooling centrifuge Model MX-105, from Tomy Co., Ltd., 3,000 rpm, 10 minutes) to provide plasma. In the mouse plasma maintained at 37° C. was mixed each of D-penicillamine, dimercaprol, trientine hydrochloride, and deferoxamine mesylate to a final concentration of 10 mg/mL, to which ^64Cu-ATSM was then added to a final concentration of 6 μCi/mL. After maintaining each of the mixtures at 37° C. for 5 minutes, 30 minutes, or 60 minutes, methanol cooled at 4° C. in advance was added in an equal amount to the plasma thereto, which was thoroughly mixed and centrifuged (as above), followed by analyzing the supernatant by a TLC method.

Data set [3] has as its system HT29 tumor-bearing mice. The experiment in a line: Effect of D-penicillamine on in vivo pharmacokinetics of ^64Cu-ATSM in HT29 tumor-bearing mouse (1): before/after dosing. The note with it: vs saline.
In data set [4] the test system is HT29 tumor-bearing mice. The experiment in a line: Effect of D-penicillamine on in vivo pharmacokinetics and excretion of ^64Cu-ATSM in HT29 tumor-bearing mouse (2): dose dependence. The note with it: D-penicillamine 100, 300 or 500 mg/kg oral 1 hour after ^64Cu-ATSM, vs saline.
The subject of data set [5] is HT29 tumor-bearing mice. The experiment in a line: Effect of D-penicillamine on in vivo pharmacokinetics and excretion of ^64Cu-ATSM in HT29 tumor-bearing mouse (3): repeated administration. As to conditions: D-penicillamine 100 mg/kg oral 3 times at 1-hour or 2-hour intervals, vs saline.
Experimental: 185 kBq (5 μCi) of ^64Cu-ATSM was administered through the tail vein of the tumor-bearing mice prepared by the same method as Example 3; D-penicillamine was orally administered to 100 mg/kg 1 hour thereafter; and D-penicillamine was then orally administered to 100 mg/kg 2 times at 1-hour or 2-hour intervals. Saline was administered to a control group in place of D-penicillamine. Thereafter, radioactivity in each organ, urine, and feces was measured as Example 4; the radioactivity distributed in each organ was expressed as % ID/g tissue, and the excretion of radioactivity into urine and feces was expressed as % ID.
Data set [6] deals with HT29 tumor-bearing mice. The experiment in a line: Effect of D-penicillamine on PET imaging of ^64Cu-ATSM in HT29 tumor-bearing mouse. The format is in vivo. On the procedure:
The distribution of radioactivity was imaged using a PET device specific for small animals (Inveon, from Siemens Medical Systems, Inc.) 30 minutes and 2, 3, 4, 5, 6, 7, 8, and 24 hours after the administration of ^64Cu-ATSM. Image acquisition was performed for 5 minutes from each time point, and the image was reconstructed by a 3-dimensional maximum a posteriori probability method (3D-MAP method) using Inveon Acquisition Workplace Software (from Siemens Medical Systems, Inc.). As a control, PET imaging was also similarly performed in mice receiving the administration of saline in place of D-penicillamine.

Data set [7] concerns HT29 tumor-bearing mice. The experiment in a line: Effect of repeated D-penicillamine with or without glycerin enema on in vivo pharmacokinetics and excretion of ^64Cu-ATSM in HT29 tumor-bearing mouse (4). The note with it: D-penicillamine 100 mg/kg oral at 1, 3 and 5 hours after ^64Cu-ATSM, vs saline. From the text:
FIGS. 12A, 12B and 12C were expressed in average and standard deviation for 4 mice.

Data set [8] relates to CD133-positive cells. As to conditions: Yoshii et al. 2010; cited from earlier work.
Data set [9] has as its system tumor. As to conditions: Yoshii et al. 2011; cited from earlier work.
The subject of data set [10] is HT29 tumor-bearing mice. As to conditions: trientine hydrochloride 500 mg/kg oral 1 hour after ^64Cu-ATSM; vs saline. The procedure:
Human large bowel cancer-derived HT29 cells were purchased from ATCC and proliferated for use. The HT29 tumor-bearing model was prepared by implanting 1×10^7 HT29 cells subcutaneously in the femoral region of BALB/c nude mice (male, 6-week old, about 25 g in body weight, obtained from Japan SLC, Inc.), and used for the experiment 3 weeks after implantation. The tumor-bearing mice were fasted from 16 hours or more before the start of the experiment. 185 kBq (5 μCi) of ^64Cu-ATSM was administered through the tail vein of the HT29 tumor-bearing mice, and D-penicillamine was orally administered to 500 mg/kg 10 minutes therebefore or 1 hour thereafter. Saline was administered to a control group in place of D-penicillamine. They were sacrificed by blood removal from the heart under diethyl ether anesthesia 1, 2, and 3 hours after the administration of ^64Cu-ATSM; each tissue was removed and weighed; and radioactivity was further measured using an automatic gamma counter (Model: 1480 Wizard 3, from PerkinElmer Co., Ltd.). The radioactivity distributed in each organ was expressed as radioactivity per g of organ (% ID (Injected Dose)/g tissue) when the amount administered is set to 100%. 185 kBq (5 μCi) of ^64Cu-ATSM was administered through the tail vein of the HT29 tumor-bearing mice prepared by the same method as Example 3, and D-penicillamine was orally administered to 100, 300, or 500 mg/kg 1 hour thereafter. Saline was administered to a control group in place of D-penicillamine. They were sacrificed by blood removal from the heart under diethyl ether anesthesia 2, 4, 6, 16, and 24 hours after the administration of ^64Cu-ATSM; each tissue was removed and weighed; and radioactivity was further measured. The excreted urine and feces were recovered, and radioactivity was similarly measured. The radioactivity distributed in each organ was expressed as ID/g tissue. The excretion of radioactivity into each of urine and feces was expressed as radioactivity (% ID) when the amount administered was set to 100%. 185 kBq (5 μCi) of ^64Cu-ATSM was administered through the tail vein of the tumor-bearing mice prepared by the same method as Example 3, and trientine hydrochloride was orally administered to 500 mg/kg 1 hour thereafter. Saline was administered to a control group in place of trientine hydrochloride. Thereafter, radioactivity in each organ, urine, and feces was measured as Example 4; the radioactivity distributed in each organ was expressed as % ID/g tissue, and the excretion of radioactivity into urine and feces was expressed as % ID.

The mark [11] stands for this setting: D-penicillamine 300 mg/kg oral 1 hour after 37 MBq ^64Cu-ATSM, vs saline.

Where a name gives a salt, the structure may show the parent alone. Read-outs that look alike come from different tables or passages of the source.

Consider `O=C([O-])CN(CCN(CC(=O)[O-])CC(=O)[O-])CCN(CC(=O)[O-])CC(=O)[O-].[Ca+2].[Na+].[Na+].[Na+]` [Ca-DTPA], for which the “uptake of radioactivity into each organ and tumor” value in [1] is recorded as “statistically little affected”.
Consider `CC(C)(S)[C@@H](N)C(=O)O` [D-penicillamine], for which the “^64Cu complex exchange reaction from ^64Cu-ATSM to a highly polar complex” value (shortened to “^64Cu complex exchange reaction”) in data set [2] is “Cu-ATSM and unidentified metabolites or degradation products rapidly disappeared, and the origin component increased”. For the same molecule, the “uptake of radioactivity into the tumor” value is “decreased the uptake of radioactivity into the tumor” in data set [3] (D-penicillamine 500 mg/kg oral 10 minutes before ^64Cu-ATSM), “not statistically significantly affected” in [4], “not statistically significantly affected” in data set [5] and “not statistically significantly affected” in data set [7]. In data set [3] (D-penicillamine 500 mg/kg oral 1 hour after ^64Cu-ATSM), the “uptake of ^64Cu-ATSM into the tumor” value is listed as “did not affect”. Moreover, the “uptake of radioactivity into the liver” value is “markedly decreased” in data set [3] (D-penicillamine 500 mg/kg oral, 10 minutes before or 1 hour after ^64Cu-ATSM i.v., 1, 2, 3 hours); “dose-dependently decreased” in data set [4] (2-24 hours); “decreased” in data set [5] (from 1 hour after ^64Cu-ATSM); “decreased” in data set [7] (6, 16, 24 hours). Besides, the “excretion of radioactivity into feces” value in data set [4] and in [5] was “less affected” throughout. Also, the “excretion of radioactivity into urine” value in data set [4], in data set [5] and in [7] was “statistically significantly promoted” each time. Besides, the “accumulation of radioactivity in the bladder (PET)” value in data set [6] (setting [11]) is on record as “increase the accumulation of radioactivity in the bladder”. For the same molecule, the “accumulation of radioactivity in the liver (PET)” value in [6] (setting [11]) is reported as “decrease the accumulation of radioactivity in the liver”. Further, the “accumulation of radioactivity in the tumor (PET)” value in data set [6] (setting [11]) was “not affected”.
Consider `CN=C([S-])N/N=C(C)/C(C)=N/NC([S-])=NC.[64Cu+2]` [^64Cu-ATSM, radioactive diacetyl-bis(N4-methylthiosemicarbazone) copper complex], for which, in [6] (37 MBq ^64Cu-ATSM i.v., before chelating agent), the “radioactivity accumulation in the liver after ^64Cu-ATSM (PET)” value is reported as “radioactivity accumulation in the liver was once observed”. The “accumulation in CD133-positive cells” value in [8] is “accumulates in CD133-positive cells”. For the same molecule, in data set [9], the “amount of CD133-positive cells in tumor” value is “decreased the amount of CD133-positive cells in tumor” and the tumor size entry is recorded as “shrink the tumor”.
For `CC(=O)N(O)CCCCCNC(=O)CCC(=O)N(O)CCCCCNC(=O)CCC(=O)N(O)CCCCCN` [deferoxamine mesylate], the “^64Cu complex exchange reaction” value in data set [2] is “No complex exchange reaction”.
On the same count and under the same terms, with `OCC(S)CS` (stereo not drawn) [dimercaprol] the entry was “Cu-ATSM and unidentified metabolites or degradation products rapidly disappeared, and the origin component increased”.
As to `NCCNCCNCCN` [trientine hydrochloride], the “^64Cu complex exchange reaction” value in data set [2] is “the effect thereof was relatively weak”. Also, in [10], the “excretion of radioactivity into feces” value is “less affected”, the “excretion of radioactivity into urine” value was “statistically significantly promoted”, the “uptake of radioactivity into the liver” value was “tended to be decreased” and the “uptake of radioactivity into the tumor” value is given as “not statistically significantly affected”.

The values above are taken from US20140186260A1, “RADIOPHARMACEUTICAL AND PHARMACEUTICAL KIT” (NIHON MEDI-PHYSICS CO., LTD., priority 2012, published 2014).
